Measured values from patent US20080171095A1, “Carnosine-related compounds for preventing and treating impaired neurovascular blood flow” (Michigan State University, priority 2005, published 2008).

Tested on: Male C57BL/6J mice, permanent occlusion of the middle cerebral artery (focal ischemia)
Assay: Focal ischemia in mice: permanent occlusion of the middle cerebral artery, infarct volume by 2,3,5-triphenyl-tetrazolium chloride staining
Type: in vivo
Settings: assessed 24 hours after occlusion; for Reduction of infarct volume versus saline-injected control mice: 30 minutes before artery occlusion (FIG. 1)
Method: Male C57BL/6J mice were subjected to a permanent occlusion of the middle cerebral artery. For prophylactic studies, carnosine (100 mg/kg or 500 mg/kg, I.P.) was administered thirty (30) minutes (FIG. 1) or sixty (60) minutes (FIG. 2) before artery occlusion. For treatment studies, carnosine (1000 mg/kg, I.P.) was administered sixty (60) minutes after artery occlusion (FIG. 2).
Damage to the neural tissue (i.e., infarct volume) was assessed twenty-four (24) hours after occlusion by 2,3,5-triphenyl-tetrazolium chloride staining. Infarct volumes were reduced by 49% and 65% in mice prophylactically given 100 mg/kg and 500 mg/kg carnosine, respectively, versus saline-injected control mice. (FIG. 1) This protective dose dependence was reproduced in a second experiment that compared a post-occlusion carnosine administration. In this experiment, infarct volumes were reduced by 40% and 52%, respectively in mice prophylactically given 100 mg/kg and 500 mg/kg carnosine. A 40% reduction in infarct volume was also observed when mice were administered 1000 mg/kg carnosine after the occlusion.

Compound: NCCC(=O)N[C@@H](Cc1c[nH]cn1)C(=O)O [carnosine, β-alanyl-L-histidine]
- Reduction of infarct volume versus saline-injected control mice (100 mg/kg I.P., prophylactic): 49%
- Reduction of infarct volume versus saline-injected control mice (500 mg/kg I.P., prophylactic): 65%
- Reduction of infarct volume (second experiment (FIG. 2): 100 mg/kg I.P., prophylactic, 60 minutes before artery occlusion): 40%
- Reduction of infarct volume (second experiment (FIG. 2): 500 mg/kg I.P., prophylactic, 60 minutes before artery occlusion): 52%
- Reduction of infarct volume (second experiment (FIG. 2): 1000 mg/kg I.P., treatment, 60 minutes after artery occlusion): 40%
